For experiment [1], the target named is T1, δ-opioid receptor (Mus musculus, UniProt P32300).
T1 construct: from tissue; host or cells: vas deferens of male ddy mice
In words: δ-opioid antagonist activity against DPDPE in mouse vas deferens (MVD). The following applies: against DPDPE; test compound 100 nM, 20 min; read-out: Ke. A digest of the protocol:
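Vas deferens from male ddy mice in Krebs-Henseleit at 37 °C (5% CO2/95% O2), field-stimulated at 0.1 Hz, 5.0 ms, isometric contraction recorded. IC50 dose ratio, Ke and Schild pA2 derived.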

The target of experiment [2] is T1, δ-opioid receptor. In words: Change in δ-antagonist activity against DPDPE with time in mouse vas deferens (MVD). As to conditions: for Ratio of IC50 Values / Kb: 173 and NTI at 20 nM, 174 and 5'-NTII at 100 nM; for Kb: read-out: Ke. On the procedure: In this experiment, ddy male mice were used. In a Magnus' tube which is filled with Krebes-Henseleit solution (NaCl […]; KCl 4.7 mM; CaCl2 2.5 mM; KH2 PO4 1.1 mM; NaHCO3 25 mM; glucose 11 mM) kept at 37° C., and into which an atmosphere consisting of 5% carbon dioxide and 95% oxygen was flown, vas deferens taken from the animals was suspended. Electric stimulation was applied through ring-shaped platinum electrodes mounted on the upper and lower portions of the tube at a frequency of 0.1 Hz and 5.0 mS duration. The contraction of the tissue was recorded on polygraph using isometric transducer.
Then 100 nM of the test compound was added. Twenty minutes later, DPDPE was begun to be added cumulatively. The ratio of IC50 values in the presence and absence of the test compound, Ke value (the molar concentration of the test compound necessary for translating the dose-effect curve to the curve of twice dose) and pA2 value were determined. The pA2 value was determined by the method of Shild et al (Shild, H. O., Br. J. Pharmac. Chamotehr., 4, 277 (1949)). That is, the logarithm of the test compound (log[test compound]) was plotted along the abscissa and the logarithm of the value obtained by subtracting 1 from the ratio of IC50 values was plotted in the presence and absence of the test compound [log(dose ratio-1)] along the ordinate. The pA2 value was determined from the value on the abscissa when the value on the ordinate of the obtained line is 0.
Using MVD, the antagonist activities of compounds 173 and 174 against DPDPE were determined. The ratio of IC50 values, Ke values and pA2 values at 15 minutes, 30 minutes and 1 hour from the addition of the test compounds were calculated. Since the concentrations of the test compounds are different, the reciprocals of Ke values were plotted in FIGS. 1 and 2.

The test system of experiment [3] is delayed type hypersensitivity. In words: Mouse Delayed Type Hypersensitivity Reaction Suppression Test-3 (administration into cerebral ventricles). The experiment is classed as in vivo. The following applies: 5×10^-8 mol/mouse into cerebral ventricles; BALB/c. The source says: BALB/c mice (male, 7 weeks old) were used, and each group consisted of 4-5 mice. Spleen cells (1×10^7) obtained from a donor mouse (C57BL/6) was subcutaneously administered to sensitize the mice. On Day 7 from the sensitization, the spleen cells (5×10^6) of the donor were subcutaneously administered on the right footpad and spleen cells (5×10^6) obtained from a mouse of the same strain as the recipient mice were subcutaneously administered on the left footpad. Twenty four hours later, the thicknesses of the right and left footpads were measured with a dial thickness gage, and the difference in thicknesses of the right and left footpads before the induction of the reaction and 24 hours after the induction of the reaction was employed as the index of the degree of the reaction.
The test compound was dissolved in water and 5×10^-8 mol/mouse was administered into cerebral ventricles. In the control group, water alone was administered similarly. The dose was 5 μl/mouse in both the study groups and the control group.

T1 sequence (P32300 whole entry): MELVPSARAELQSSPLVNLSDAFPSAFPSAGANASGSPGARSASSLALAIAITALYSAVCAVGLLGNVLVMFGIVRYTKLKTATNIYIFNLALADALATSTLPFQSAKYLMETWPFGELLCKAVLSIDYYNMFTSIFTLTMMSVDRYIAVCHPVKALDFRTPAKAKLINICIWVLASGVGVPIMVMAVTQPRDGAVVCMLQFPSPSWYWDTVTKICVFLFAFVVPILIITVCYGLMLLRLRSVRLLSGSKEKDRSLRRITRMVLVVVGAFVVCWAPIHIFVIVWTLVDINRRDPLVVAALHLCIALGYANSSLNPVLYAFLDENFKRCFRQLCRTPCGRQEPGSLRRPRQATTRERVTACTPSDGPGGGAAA

Turning to `Oc1ccc2c3c1O[C@H]1c4[nH]c5ccccc5c4C[C@@]4(O)[C@@H](C2)N(CC2CC2)CC[C@]314` [NTI, reference compound], the Kb was determined as 0.21 nM at δ-opioid receptor [1], 0.21 nM on δ-opioid receptor [2] (15 min), 0.21 nM at δ-opioid receptor [2] (30 min) and 0.24 nM on δ-opioid receptor [2] (60 min). Moreover, the “Ratio of IC50 Values” at δ-opioid receptor [2] (15 min) is 96.3; at δ-opioid receptor [2] (30 min), 95.6; on δ-opioid receptor [2] (60 min), 83.7. Besides, the “change of antagonist activity with time (in words)” value on δ-opioid receptor [2] (15 min to 1 hour) is reported as “did not change”. In experiment [3], the “% Suppression” value was 40%.
